According to ChEMBL document CHEMBL1255208, “A class of novel conjugates of substituted purine and Gly-AA-OBzl: synthesis and evaluation of orally analgesic activity” (2010):
Where a SMILES comes first, the peptide text is derived from it. The star is where a group is joined. OBn = c1ccc(CO*)cc1

Experiments:
Type in all cases: functional
Mus musculus [1] = test: Analgesic activity in mouse assessed as pain threshold variation at 25 umol/kg, po after 30 mins (RVb = -1 +/- 2.8 %)
Mus musculus [2] = test: Analgesic activity in mouse assessed as pain threshold variation at 25 umol/kg, po after 180 mins (RVb = -5.10 %)
Mus musculus [3] = test: Analgesic activity in mouse assessed as pain threshold variation at 30 umol/kg, po after 60 mins (RVb = 0.15 +/- 0.16 %)
Mus musculus [4] = test: Analgesic activity in mouse assessed as pain threshold variation at 30 umol/kg, po after 150 mins (RVb = 0.16 +/- 0.13 %)
Mus musculus [5] = test: Analgesic activity in mouse assessed as pain threshold variation at 30 umol/kg, po after 90 mins (RVb = 0.17 +/- 0.14 %)
Mus musculus [6] = test: Analgesic activity in mouse assessed as pain threshold variation at 30 umol/kg, po after 120 mins (RVb = 0.18 +/- 0.15 %)
Mus musculus [7] = test: Analgesic activity in mouse assessed as pain threshold variation at 30 umol/kg, po after 30 mins (RVb = 0.13 +/- 0.14 %)
Mus musculus [8] = test: Analgesic activity in mouse assessed as pain threshold variation at 30 umol/kg, po after 180 mins (RVb = 0.15 +/- 0.12 %)
Mus musculus [9] = test: Analgesic activity in mouse assessed as pain threshold variation at 25 umol/kg, po after 90 mins (RVb = 0.2 +/- 3.75 %)
Mus musculus [10] = test: Analgesic activity in mouse assessed as pain threshold variation at 25 umol/kg, po after 120 mins (RVb = 0.69 +/- 1.98 %)
Mus musculus [11] = test: Analgesic activity in mouse assessed as pain threshold variation at 25 umol/kg, po after 150 mins (RVb = 3.98 +/- 4.03 %)
Mus musculus [12] = test: Analgesic activity in mouse assessed as pain threshold variation at 25 umol/kg, po after 60 mins (RVb = -6.5 +/- 1.79 %)
Mus musculus [13] = test: Analgesic activity in mouse assessed as pain threshold variation at 0.3 umol/kg, po after 180 mins (RVb = 0.15 +/- 0.12 %)
Mus musculus [14] = test: Analgesic activity in mouse assessed as pain threshold variation at 0.3 umol/kg, po after 120 mins (RVb = 0.18 +/- 0.15 %)
Mus musculus [15] = test: Analgesic activity in mouse assessed as pain threshold variation at 0.3 umol/kg, po after 60 mins (RVb = 0.15 +/- 0.16 %)
Mus musculus [16] = test: Analgesic activity in mouse assessed as pain threshold variation at 3 umol/kg, po after 90 mins (RVb = 0.17 +/- 0.14 %)
Mus musculus [17] = test: Analgesic activity in mouse assessed as pain threshold variation at 0.3 umol/kg, po after 30 mins (RVb = 0.13 +/- 0.14 %)
Mus musculus [18] = test: Analgesic activity in mouse assessed as pain threshold variation at 0.3 umol/kg, po after 150 mins (RVb = 0.16 +/- 0.13 %)
Mus musculus [19] = test: Analgesic activity in mouse assessed as pain threshold variation at 0.3 umol/kg, po after 90 mins (RVb = 0.17 +/- 0.14 %)
Mus musculus [20] = test: Analgesic activity in mouse assessed as pain threshold variation at 3 umol/kg, po after 150 mins (RVb = 0.16 +/- 0.13 %)
Mus musculus [21] = test: Analgesic activity in mouse assessed as pain threshold variation at 3 umol/kg, po after 180 mins (RVb = 0.15 +/- 0.12 %)
Mus musculus [22] = test: Analgesic activity in mouse assessed as pain threshold variation at 3 umol/kg, po after 120 mins (RVb = 0.18 +/- 0.15 %)
Mus musculus [23] = test: Analgesic activity in mouse assessed as pain threshold variation at 3 umol/kg, po after 30 mins (RVb = 0.13 +/- 0.14 %)
Mus musculus [24] = test: Analgesic activity in mouse assessed as pain threshold variation at 3 umol/kg, po after 60 mins (RVb = 0.15 +/- 0.16 %)

Structure (SMILES) | Activity (Mus musculus [1]) | Activity (Mus musculus [2]) | Activity (Mus musculus [9]) | Activity (Mus musculus [10]) | Activity (Mus musculus [11]) | Activity (Mus musculus [12]) | other results
Clc1nc(NC2CC2)c2ncn(C3CCCCO3)c2n1 (stereo not drawn) | 10.27% | 5.92% | 11.93% | 12.64% | 5.72% | 20.63% | Activity (Mus musculus [3]): 25.61%; Activity (Mus musculus [4]): 10.78%; Activity (Mus musculus [5]): 16.96%; Activity (Mus musculus [6]): 15.66%; Activity (Mus musculus [7]): 15.2%; Activity (Mus musculus [8]): 9.95%
O=C(CN(c1nc(Cl)nc2c1ncn2C1CCCCO1)C1CC1)N[C@@H](CC(=O)OCc1ccccc1)C(=O)OCc1ccccc1 (stereo partly drawn) | 31.81% | 0.03% | 25.07% | 7.82% | 0.06% | 38.15% | 
O=C(CN(c1nc(Cl)nc2c1ncn2C1CCCCO1)C1CC1)N[C@@H](CCC(=O)OCc1ccccc1)C(=O)OCc1ccccc1 (stereo partly drawn) | 32.61% | 10.93% | 25.2% | 20.71% | 14.14% | 34.74% | 
CC(C)(C)OC(=O)NCCCC[C@H](NC(=O)CN(c1nc(Cl)nc2c1ncn2C1CCCCO1)C1CC1)C(=O)OCc1ccccc1 (stereo partly drawn) | 18.33% | 10.06% | 32.85% | 28.39% | 17.2% | 32.66% | 
O=C(CN(c1nc(Cl)nc2c1ncn2C1CCCCO1)C1CC1)N[C@@H](Cc1ccccc1)C(=O)OCc1ccccc1 (stereo partly drawn) | 39.2% | 1.79% | 37.73% | 26.29% | 3.49% | 45.54% | 
O=C(CN(c1nc(Cl)nc2c1ncn2C1CCCCO1)C1CC1)N[C@@H](Cc1c[nH]c2ccccc12)C(=O)OCc1ccccc1 (stereo partly drawn) | 43.53% | 5.15% | 38.93% | 22.58% | 11.45% | 51.9% | 
O=C(CN(c1nc(Cl)nc2c1ncn2C1CCCCO1)C1CC1)N[C@@H](Cc1ccc(O)cc1)C(=O)OCc1ccccc1 (stereo partly drawn) | 20.53% | 12.02% | 36.45% | 17.44% | 8.71% | 35.82% | 
Clc1nc(Cl)c2nc[nH]c2n1 |  |  |  |  |  |  | Activity (Mus musculus [3]): 21.62%; Activity (Mus musculus [4]): 8.77%; Activity (Mus musculus [5]): 14.02%; Activity (Mus musculus [6]): 12.97%; Activity (Mus musculus [7]): 12.22%; Activity (Mus musculus [8]): 7.99%
Clc1nc(Cl)c2ncn(C3CCCCO3)c2n1 (stereo not drawn) |  |  |  |  |  |  | Activity (Mus musculus [3]): 23.99%; Activity (Mus musculus [4]): 9.89%; Activity (Mus musculus [5]): 15.01%; Activity (Mus musculus [6]): 14.13%; Activity (Mus musculus [7]): 14.3%; Activity (Mus musculus [8]): 8.03%
CSCC[C@H](NC(=O)CN(c1nc(Cl)nc2c1ncn2C1CCCCO1)C1CC1)C(=O)OCc1ccccc1 (stereo partly drawn) | 30.04% | 12.89% | 42.7% | 28.66% | 17.47% | 40.97% | 
O=C(OCc1ccccc1)[C@@H]1CCCN1C(=O)CN(c1nc(Cl)nc2c1ncn2C1CCCCO1)C1CC1 (stereo partly drawn) | 32.25% | 6.63% | 23.31% | 17.49% | 7.85% | 36.73% | 
O=C(CN(c1nc(Cl)nc2c1ncn2C1CCCCO1)C1CC1)N[C@@H](CO)C(=O)OCc1ccccc1 (stereo partly drawn) | 27.77% | 12.85% | 32.17% | 29.2% | 18.32% | 46.71% | 
C[C@@H](O)[C@H](NC(=O)CN(c1nc(Cl)nc2c1ncn2C1CCCCO1)C1CC1)C(=O)OCc1ccccc1 (stereo partly drawn) | 23.61% | 2.34% | 23.38% | 10.91% | 6.53% | 28.36% | 
CC(C)[C@H](NC(=O)CN(c1nc(Cl)nc2c1ncn2C1CCCCO1)C1CC1)C(=O)OCc1ccccc1 (stereo partly drawn) | 21.83% | 5.65% | 30.14% | 25.79% | 21.08% | 34.85% | 
O=C(O)CN(c1nc(Cl)nc2c1ncn2C1CCCCO1)C1CC1 (stereo not drawn) | 5.21% | 3.41% | 8.22% | 7.68% | 3.12% | 15.24% | 
C[C@H](NC(=O)CN(c1nc(Cl)nc2c1ncn2C1CCCCO1)C1CC1)C(=O)OCc1ccccc1 (stereo partly drawn) | 55.91% | 5.96% | 32.06% | 25.3% | 6.01% | 53% | Activity (Mus musculus [13]): 8.09%; Activity (Mus musculus [14]): 11.03%; Activity (Mus musculus [15]): 21.56%; Activity (Mus musculus [16]): 25.34%; Activity (Mus musculus [3]): 58.18%; Activity (Mus musculus [17]): 25.6%; Activity (Mus musculus [4]): 11.2%; Activity (Mus musculus [18]): 10%; Activity (Mus musculus [19]): 11.43%; Activity (Mus musculus [5]): 37.16%; Activity (Mus musculus [6]): 30.44%; Activity (Mus musculus [20]): 12%; Activity (Mus musculus [21]): 10%; Activity (Mus musculus [7]): 60.11%; Activity (Mus musculus [8]): 11%; Activity (Mus musculus [22]): 18.03%; Activity (Mus musculus [23]): 43.25%; Activity (Mus musculus [24]): 39.81%
NC(=O)C[C@H](NC(=O)CN(c1nc(Cl)nc2c1ncn2C1CCCCO1)C1CC1)C(=O)OCc1ccccc1 (stereo partly drawn) | 34.53% | 15.45% | 34.95% | 29.15% | 21.71% | 30.54% | 
NC(=O)CC[C@H](NC(=O)CN(c1nc(Cl)nc2c1ncn2C1CCCCO1)C1CC1)C(=O)OCc1ccccc1 (stereo partly drawn) | 46.96% | 7.71% | 37.82% | 22.34% | 10.72% | 39.4% | 
O=C(CN(c1nc(Cl)nc2c1ncn2C1CCCCO1)C1CC1)N[C@@H](Cc1cnc[nH]1)C(=O)OCc1ccccc1 (stereo partly drawn) | 24.98% | 4.38% | 14.45% | 10.16% | 5.31% | 36.43% | 
CC[C@H](C)[C@H](NC(=O)CN(c1nc(Cl)nc2c1ncn2C1CCCCO1)C1CC1)C(=O)OCc1ccccc1 (stereo partly drawn) | 25.56% | 9.15% | 22.57% | 20.42% | 16.43% | 27.35% | 
CC(C)C[C@H](NC(=O)CN(c1nc(Cl)nc2c1ncn2C1CCCCO1)C1CC1)C(=O)OCc1ccccc1 (stereo partly drawn) | 26.2% | 0.04% | 28.22% | 12.79% | 6.47% | 34.19% | 
CCOC(=O)CN(c1nc(Cl)nc2c1ncn2C1CCCCO1)C1CC1 (stereo not drawn) | 9.92% | 5.33% | 13.04% | 14.91% | 11.85% | 22.64% | 
C[C@H](NC(=O)CN)C(=O)OCc1ccccc1 (H-Gly-Ala-OBn) |  |  |  |  |  |  | Activity (Mus musculus [3]): 13.32%; Activity (Mus musculus [4]): 13%; Activity (Mus musculus [5]): 13.45%; Activity (Mus musculus [6]): 13.57%; Activity (Mus musculus [7]): 12.25%; Activity (Mus musculus [8]): 12.99%
NCC(=O)O [GLYCINE] |  |  |  |  |  |  | Activity (Mus musculus [3]): 11.21%; Activity (Mus musculus [4]): 11.54%; Activity (Mus musculus [5]): 11.31%; Activity (Mus musculus [6]): 12.03%; Activity (Mus musculus [7]): 10.13%; Activity (Mus musculus [8]): 10.96%
